Test results as given in patent US20100256145A1, “USE OF KCNQ POTASSIUM CHANNEL OPENERS FOR REDUCING SYMPTOMS OF OR TREATING DISORDERS OR CONDITIONS WHEREIN THE DOPAMINERGIC SYSTEM IS DISRUPTED” (H. LUNDBECK A/S, priority 2007, published 2010).
Marks after values point to notes of the source that are not given here.

Legend:
basal locomotor activity = test: Basal locomotor activity inhibition (motility inhibition) in the rat; type: in vivo; details: basal locomotor activity without stimulant (sedative properties), std. dev. in brackets
Procedure: Subjects. Male Wistar rats (Taconic, Denmark) weighing 170-240 g are used. The animals are housed under a 12-hr light/dark cycle under controlled conditions for regular in-door temperature (21±2° C.) and humidity (55±5%) with food and tap water available ad libitum.
Experimental procedure. The experiment is made in normal light conditions in an undisturbed room. […] Immediately after injection of the stimulant, the rats are placed individually in the test cages that are placed in a U-frame, equipped with 4 infrared light sources and photocells. The light beams cross the cage 4 cm above the cage floor. Recording of a motility count requires interruption of adjacent light beams, thus avoiding counts induced by stationary movements of the rat. Motility (counts) is recorded for a period of 2 hours. […] The 100 percent effect of stimulant drug is accordingly calculated to be total motility counts minus baseline. […] The percent responses are converted to percent inhibition from which ED50 values are calculated by means of log-probit analyses. In a parallel set of data, the potential sedative properties (exemplified by basal locomotor activity inhibition) of the test compounds are evaluated using essentially the same procedure with the exception of not administering the stimulant drug at the initiation of locomotor assessment.

[1] = system: conditioned avoidance response; test: Conditioned avoidance response in rats; type: in vivo, rat
Procedure: Subjects. Male Wistar rats (Taconic, Denmark) weighing 150 g at the beginning of the study are used. The rats are housed in pairs and maintained on a 12 h light/dark cycle (lights on 06:00). The animals are fed once daily (approx. 6 pellets/rat) in order to keep the rats at 80% of their free-feeding weight. Water is available ad libitum. Temperature (21±1° C.) and relative humidity (55±5%) are automatically controlled.
Experimental procedure. Conditioned avoidance testing is conducted using four automated shuttle-boxes (ENV-010M, MED-Associates) each placed in a sound-attenuated chamber. Each box is divided into two compartments by a partition with an opening. The position of the animal and crossings from one compartment to the other are detected by two photocells placed on either side of the dividing wall. Upon presentation of the conditioned stimuli (CS), tone and light, the animals have 10s to cross to the other compartment of the shuttle-box in order to turn the CS off (end the trial) and avoid the appearance of the unconditioned stimulus (UCS). If the rat remains in the same compartment for more than 10s, the UCS is presented as 0.5 mA scrambled foot-shocks until escape is performed or 10s in maximal duration. The following behavioural variables are evaluated: avoidance (response to CS within 10s); escape (reponse to CS+UCS); escape failures (failure to respond); intertrial crosses and locomotor activity. The rats are habituated to the shuttle-box 3 min before each test session. During training each test session consists of 30 trials with intertrial intervals varying randomly between 20s and 30s. Training is carried out until the rats display an avoidance of 80% or more, on 3 consecutive days. A test is preceded by a pre-test the day before giving rise to a baseline value for each animal, thus the animals serve as their own control. Seven to eight rats are used at each dose level. A parallel control group receiving the vehicle of the test compound is also included.
Administration of compound. […] All compounds are dissolved in a vehicle of 10% 2-hydroxy-propyl-beta-cyclodextrin (isotonic with glucose, pH 5-7).
Statistical analyses. The effects of compounds on avoidance and escape failure behaviours are statistically evaluated by means of two-way repeated measures ANOVA followed by post hoc comparisons (Student-Newman-Keuls Method) when appropriate. P-levels <0.05 are considered statistically significant.

baseline motility = test: Baseline motility in mice (vehicle-pretreated, vehicle-challenged); type: in vivo, mouse; details: s.c., Std. Dev. in brackets
Procedure: Subjects. Male NMRI mice (Charles River) weighing approx. 35 g are used. […] 12 mice are used pr experimental group.
Experimental procedure. All mice are pre-treated once daily for five days with either d-amphetamine sulphate (2.5 mg/kg s.c.) or saline (10 ml/kg). For the 17 days between the last day of pre-treatment and the test day, the animals are kept in their homecage receiving the care as described above. The experiment is performed under normal light conditions in an undisturbed room. The mice are treated with test substance or vehicle and placed individually in the test cages for 30 min. The mice are then challenged with D-amphetamine sulphate (1.25 mg/kg s.c.) or saline (5 ml/kg) and replaced in the test-cage and data acquisition is begun. 5×8 infrared light sources and photocells interspaced by 4 cm monitor the locomotor activity. The light beams cross the cage 1.8 cm above the bottom of the cage.
Administration of compounds.
Data analyses. […] Similarly an ED50 for inhibiting baseline motility is calculated by expressed the motility response in vehicle-pretreated, vehicle-challenged, drug-treated animals relative to the baseline motility response. A therapeutic index value is subsequently calculated by dividing the first ED50 by the second.

[2] = system: social behaviours in the rat Tetradic Encounter test; test: Rat Tetradic Encounter test; details: for % of time Agonistic behaviour: sum of defensive and aggressive behaviour
Procedure: Subjects. 5 week old male Wistar rats (Harlan, Germany) were used. The animals were housed in groups of four animals per cage and kept under a 12 h/12 h light dark rhythm (start of the dark phase at 2:00 p.m., CET), at 20° C. room temperature and 60% humidity. During the whole study, standard diet and tap water was provided ad libitum.
Experimental procedure. […] Therefore, half of the cage is the home territory of each animal. At test time, the wall is removed from the cage so that the animals can interact with each other for 15 minutes. Both animals are from the same test group. The cage is illuminated by dim red light. The test starts 1 hour after beginning of the dark phase. All animals are marked individually by means of black symbols on their back. Behaviour is registered by video. Each animal is tested once.
Analyses. In both the TE test and the MRI test, the portion of time (%) spent in non-social, friendly, defensive, aggressive or agonistic (sum of defensive and aggressive behaviour) behaviour was compared across the experimental groups against the relevant control group by means of Analysis of Variance (ANOVA) (one-factor).

[3] = Rattus norvegicus, sc, read-out: % inhibition of avoidance (Std. dev.) Relative to baseline
[4] = 2 mg/kg s.c. 30 min before test
[5] = 10 mg/kg s.c. 30 min before test

## CCOC(=O)Nc1ccc(NCc2ccc(F)cc2)cc1N [Compound 1, reference compound]
Basal locomotor activity
  Motility inhibition ED50 (mg/kg) ± std. dev.: >8.1 mg/kg
[1]; [3]
  inhibition at 5 mg/kg: 1%
  inhibition at 10 mg/kg: 59%
[1]; rats, all tested doses (2.5-10 mg/kg s.c.), data not shown
  Escape failures (effect on motor performance): None of the tested doses cause any incidences of escape failures
Baseline motility
  Inhibition of baseline motility, ED50: 7.6 (1.3) mg/kg
[2]; [4]
  % of time Aggressive behaviour: 5.2 % of time
  % of time Defensive behaviour: 7.2 % of time
  % of time Friendly behaviour: 21.9 % of time
  % of time Non-social behaviour: 65.7 % of time
  % of time Agonistic behaviour: 12.4 % of time
[2]; [5]
  % of time Aggressive behaviour: 2.4 % of time
  % of time Defensive behaviour: 3.7* % of time
  % of time Friendly behaviour: 24.7 % of time
  % of time Non-social behaviour: 69.2 % of time
  % of time Agonistic behaviour: 6.1* % of time
